Data from article PMC10122656, “Siglec-6 mediates the uptake of extracellular vesicles through a noncanonical glycolipid binding pocket” (Nature Communications, 2023).
Values joined by “and” are separate entries in the source; they are usually repeats but may differ in a detail not shown here. Equal values may be shown once.

How the values were obtained:
Assay in all cases: Cell assay (liposome/EV binding, flow cytometry);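 on liposome binding, fluorescence signal (replicates): AF647 fluorescence intensity from 0.1 mol% AF647–PEG45–DSPE in liposomes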
Type in all cases: cell-based
[1] = target: T1, WT Siglec-6 CHO cells (Homo sapiens, UniProt O43699); conditions: for log10(MFI AF647) of GLL relative to log10(MFI AF647) of the same GLL against UT CHO cells (Fig. 2a): Sig-6 WT, 3 mol% ganglioside liposomes; for Binding of liposomes to WT Siglec-6 CHO cells relative to liposomes formulated without a ligand (Fig. 3c): 3 mol% glycolipid, Cer = native ganglioside, Amide = amide-linked nGL;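 on liposome binding, fluorescence signal (replicates): AF647 fluorescence intensity from 0.1 mol% AF647–PEG45–DSPE in liposomes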
T1 construct: expressed in transfected cells
T1 sequence (O43699 27-453): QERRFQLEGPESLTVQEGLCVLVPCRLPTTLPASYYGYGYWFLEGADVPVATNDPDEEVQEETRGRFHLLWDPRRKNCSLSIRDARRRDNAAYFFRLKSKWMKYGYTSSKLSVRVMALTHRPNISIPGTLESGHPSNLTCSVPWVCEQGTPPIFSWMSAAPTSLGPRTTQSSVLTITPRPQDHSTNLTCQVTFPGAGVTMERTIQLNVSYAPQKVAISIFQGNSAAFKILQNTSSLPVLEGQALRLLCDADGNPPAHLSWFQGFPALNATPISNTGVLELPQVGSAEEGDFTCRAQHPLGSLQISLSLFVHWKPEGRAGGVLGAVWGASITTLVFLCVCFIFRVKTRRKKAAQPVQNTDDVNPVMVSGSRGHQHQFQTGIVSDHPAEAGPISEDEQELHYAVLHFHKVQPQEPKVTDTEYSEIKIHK
Summary of the method: (§1)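 Binding of AF647-labelled, Siglec ligand-bearing liposomes (130 ± 35 nm) or EVs was measured on transfected CHO cells. Exposure was 50 µM or 50 µg/mL for 30 min at 37 °C; Siglec-positive cells were gated for analysis.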

[2] = target: T2, R122A Siglec-6 CHO cells (Homo sapiens, UniProt O43699, R122A); conditions: replicates; for log10(MFI AF647) of GLL relative to log10(MFI AF647) of the same GLL against UT CHO cells (Fig. 2a): Sig-6 R122A, 3 mol% ganglioside liposomes
T2 construct: expressed in transfected cells
T2 sequence (O43699 27-453 R122A): as the sequence (O43699 27-453) above, with R96A counted along it
Summary of the method: as §1

[3] = target: T3, CD33 WT CHO cells (Homo sapiens, UniProt P20138); conditions: 3 mol% ganglioside liposomes, replicates
T3 construct: expressed in transfected cells
T3 sequence (P20138 18-364): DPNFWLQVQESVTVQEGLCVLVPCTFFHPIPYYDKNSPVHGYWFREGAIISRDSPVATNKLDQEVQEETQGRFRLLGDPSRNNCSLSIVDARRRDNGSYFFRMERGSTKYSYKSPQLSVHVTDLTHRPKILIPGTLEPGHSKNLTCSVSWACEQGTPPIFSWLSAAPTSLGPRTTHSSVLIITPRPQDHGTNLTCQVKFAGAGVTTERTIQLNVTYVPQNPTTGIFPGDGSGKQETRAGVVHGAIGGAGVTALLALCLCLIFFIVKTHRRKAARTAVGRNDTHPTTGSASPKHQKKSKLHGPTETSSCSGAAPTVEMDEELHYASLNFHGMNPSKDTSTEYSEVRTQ
Summary of the method: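 Cells are incubated for 30 min at 37 °C with ligand-displaying liposomes (50 µM lipid) or EVs (50 µg/mL protein) in DMEM F12 containing 5% FBS. After washing and anti-Siglec staining on ice, liposome binding is quantified by flow cytometry within the Siglec-positive population.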

[4] = target: T4, Siglec-1 R116A CHO cells (Homo sapiens, UniProt Q9BZZ2, R116A); conditions: Sig-1 R116A; 3 mol% ganglioside liposomes; replicates
T4 construct: expressed in transfected cells
T4 sequence (Q9BZZ2 20-1709 R116A): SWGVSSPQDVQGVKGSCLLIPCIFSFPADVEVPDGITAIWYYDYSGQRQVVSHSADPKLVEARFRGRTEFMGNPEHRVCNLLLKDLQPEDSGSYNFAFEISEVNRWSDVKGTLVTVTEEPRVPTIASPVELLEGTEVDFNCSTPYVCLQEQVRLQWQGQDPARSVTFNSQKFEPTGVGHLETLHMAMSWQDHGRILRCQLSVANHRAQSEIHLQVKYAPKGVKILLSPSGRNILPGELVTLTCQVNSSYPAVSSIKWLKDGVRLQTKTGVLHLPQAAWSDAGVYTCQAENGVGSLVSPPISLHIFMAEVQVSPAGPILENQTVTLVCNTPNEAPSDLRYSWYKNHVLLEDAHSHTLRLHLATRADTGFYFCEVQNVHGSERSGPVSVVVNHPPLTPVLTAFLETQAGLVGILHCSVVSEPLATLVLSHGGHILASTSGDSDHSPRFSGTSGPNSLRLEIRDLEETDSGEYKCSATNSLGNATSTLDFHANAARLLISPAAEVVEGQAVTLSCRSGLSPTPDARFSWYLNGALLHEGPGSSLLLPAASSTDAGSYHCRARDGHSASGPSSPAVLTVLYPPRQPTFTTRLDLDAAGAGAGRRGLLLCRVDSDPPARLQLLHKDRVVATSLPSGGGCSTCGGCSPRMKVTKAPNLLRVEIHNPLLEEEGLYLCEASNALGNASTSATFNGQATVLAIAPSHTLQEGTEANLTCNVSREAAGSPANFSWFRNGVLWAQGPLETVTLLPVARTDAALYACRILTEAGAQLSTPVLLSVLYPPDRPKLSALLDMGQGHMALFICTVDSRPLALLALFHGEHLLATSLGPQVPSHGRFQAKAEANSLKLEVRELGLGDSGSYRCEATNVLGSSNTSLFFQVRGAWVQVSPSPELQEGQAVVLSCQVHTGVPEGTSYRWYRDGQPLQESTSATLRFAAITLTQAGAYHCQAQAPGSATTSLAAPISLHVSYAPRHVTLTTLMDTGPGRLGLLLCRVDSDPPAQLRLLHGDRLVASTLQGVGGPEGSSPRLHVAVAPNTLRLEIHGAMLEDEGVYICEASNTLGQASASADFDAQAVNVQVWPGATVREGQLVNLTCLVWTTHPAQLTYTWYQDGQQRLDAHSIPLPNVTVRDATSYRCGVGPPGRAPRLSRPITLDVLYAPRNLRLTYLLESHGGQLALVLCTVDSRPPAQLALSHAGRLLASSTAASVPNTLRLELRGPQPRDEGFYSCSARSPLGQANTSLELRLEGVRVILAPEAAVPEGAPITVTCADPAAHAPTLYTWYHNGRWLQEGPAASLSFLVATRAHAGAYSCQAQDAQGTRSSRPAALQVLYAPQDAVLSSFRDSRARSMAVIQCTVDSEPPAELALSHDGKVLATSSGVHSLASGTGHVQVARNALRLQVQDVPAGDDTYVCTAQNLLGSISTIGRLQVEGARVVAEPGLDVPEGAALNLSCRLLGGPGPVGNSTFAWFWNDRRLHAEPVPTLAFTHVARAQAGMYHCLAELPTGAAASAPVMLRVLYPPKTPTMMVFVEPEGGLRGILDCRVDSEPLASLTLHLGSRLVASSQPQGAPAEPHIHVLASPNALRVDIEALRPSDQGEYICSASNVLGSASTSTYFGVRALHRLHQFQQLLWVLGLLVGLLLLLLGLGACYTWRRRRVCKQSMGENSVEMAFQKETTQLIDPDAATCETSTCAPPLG
Summary of the method: as §1

[5] = target: T5, Siglec-8 R125A CHO cells (Homo sapiens, UniProt Q9NYZ4, R125A); conditions: Sig-8 R125A; 3 mol% ganglioside liposomes; replicates
T5 construct: expressed in transfected cells
T5 sequence (Q9NYZ4 17-499 R125A): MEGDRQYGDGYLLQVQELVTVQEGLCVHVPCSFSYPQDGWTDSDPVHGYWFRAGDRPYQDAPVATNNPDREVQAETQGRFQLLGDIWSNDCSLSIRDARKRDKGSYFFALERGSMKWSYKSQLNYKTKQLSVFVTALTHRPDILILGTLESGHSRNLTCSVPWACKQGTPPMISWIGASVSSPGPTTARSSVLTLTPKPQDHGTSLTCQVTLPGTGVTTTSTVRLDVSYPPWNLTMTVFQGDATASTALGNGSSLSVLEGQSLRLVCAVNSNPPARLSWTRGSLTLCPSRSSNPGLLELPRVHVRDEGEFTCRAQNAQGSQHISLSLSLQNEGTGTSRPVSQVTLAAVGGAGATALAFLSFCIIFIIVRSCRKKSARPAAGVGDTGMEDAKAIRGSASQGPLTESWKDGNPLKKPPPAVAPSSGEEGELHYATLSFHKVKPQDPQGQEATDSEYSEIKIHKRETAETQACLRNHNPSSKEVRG
Summary of the method: as §1

[6] = target: T6, CD22 WT CHO cells (Homo sapiens, UniProt P20273); conditions: 3 mol% ganglioside liposomes, replicates
T6 construct: expressed in transfected cells
T6 sequence (P20273 20-847): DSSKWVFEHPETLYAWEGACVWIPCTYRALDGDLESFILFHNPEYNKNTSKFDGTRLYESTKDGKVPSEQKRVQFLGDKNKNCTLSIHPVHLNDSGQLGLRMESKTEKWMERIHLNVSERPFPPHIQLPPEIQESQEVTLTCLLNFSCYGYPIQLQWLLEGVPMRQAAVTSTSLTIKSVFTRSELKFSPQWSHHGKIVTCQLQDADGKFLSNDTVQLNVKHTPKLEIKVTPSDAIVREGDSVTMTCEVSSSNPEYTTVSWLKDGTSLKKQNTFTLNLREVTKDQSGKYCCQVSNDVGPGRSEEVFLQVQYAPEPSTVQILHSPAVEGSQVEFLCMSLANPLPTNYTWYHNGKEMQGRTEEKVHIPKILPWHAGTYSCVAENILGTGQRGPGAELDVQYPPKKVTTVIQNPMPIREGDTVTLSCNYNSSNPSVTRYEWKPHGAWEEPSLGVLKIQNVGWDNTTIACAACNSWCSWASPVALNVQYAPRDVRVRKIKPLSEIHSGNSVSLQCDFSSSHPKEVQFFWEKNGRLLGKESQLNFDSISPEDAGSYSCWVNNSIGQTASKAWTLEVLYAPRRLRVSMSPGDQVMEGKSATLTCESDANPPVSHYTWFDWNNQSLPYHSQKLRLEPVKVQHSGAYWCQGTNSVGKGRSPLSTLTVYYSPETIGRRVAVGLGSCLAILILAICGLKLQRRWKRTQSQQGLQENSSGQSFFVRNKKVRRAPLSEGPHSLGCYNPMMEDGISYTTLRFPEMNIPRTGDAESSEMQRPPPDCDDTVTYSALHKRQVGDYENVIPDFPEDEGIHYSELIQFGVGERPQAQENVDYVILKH
Summary of the method: as §1

[7] = target: T7, Siglec-11 WT CHO cells (Homo sapiens, UniProt Q96RL6); conditions: Sig-11 WT; 3 mol% ganglioside liposomes; replicates
T7 construct: expressed in transfected cells
T7 sequence (Q96RL6 28-698): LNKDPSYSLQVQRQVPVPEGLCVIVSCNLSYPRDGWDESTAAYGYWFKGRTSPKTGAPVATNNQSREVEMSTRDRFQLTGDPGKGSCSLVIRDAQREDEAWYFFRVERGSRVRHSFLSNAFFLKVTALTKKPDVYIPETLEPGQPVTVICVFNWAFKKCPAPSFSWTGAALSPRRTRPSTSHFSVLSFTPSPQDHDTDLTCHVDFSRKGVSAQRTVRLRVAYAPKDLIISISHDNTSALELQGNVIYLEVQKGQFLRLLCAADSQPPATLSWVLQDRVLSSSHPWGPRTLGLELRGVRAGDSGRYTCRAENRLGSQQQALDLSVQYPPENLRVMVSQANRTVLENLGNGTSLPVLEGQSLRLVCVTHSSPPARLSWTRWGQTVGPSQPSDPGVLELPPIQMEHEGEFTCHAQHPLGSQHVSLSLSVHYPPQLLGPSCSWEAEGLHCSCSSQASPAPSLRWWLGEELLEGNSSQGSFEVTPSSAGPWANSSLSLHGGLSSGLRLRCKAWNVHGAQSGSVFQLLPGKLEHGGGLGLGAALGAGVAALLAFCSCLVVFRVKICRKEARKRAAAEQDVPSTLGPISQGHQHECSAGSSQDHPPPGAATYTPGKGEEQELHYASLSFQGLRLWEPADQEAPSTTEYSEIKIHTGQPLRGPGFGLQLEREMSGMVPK
Summary of the method: as §1

[8] = sheet Figure S17, cells not given, three experiments, each with its own Naked control

| Molecule | liposome binding, fluorescence signal (replicates) [1, 8] | log10(MFI AF647) of GLL relative to log10(MFI AF647) of the same GLL against UT CHO cells (Fig. 2a) [3] | log10(MFI AF647) of GLL relative to log10(MFI AF647) of the same GLL against UT CHO cells (Fig. 2a) [4] | log10(MFI AF647) of GLL relative to log10(MFI AF647) of the same GLL against UT CHO cells (Fig. 2a) [5] | log10(MFI AF647) of GLL relative to log10(MFI AF647) of the same GLL against UT CHO cells (Fig. 2a) ([1]; replicates) | log10(MFI AF647) of GLL relative to log10(MFI AF647) of the same GLL against UT CHO cells (Fig. 2a) [6] | log10(MFI AF647) of GLL relative to log10(MFI AF647) of the same GLL against UT CHO cells (Fig. 2a) [7] | log10(MFI AF647) of GLL relative to log10(MFI AF647) of the same GLL against UT CHO cells (Fig. 2a) [2] | further results |
| --- | --- | --- | --- | --- | --- | --- | --- | --- | --- |
| CCCCCCCCCCCCCCCCOCC(COCCCCCCCCCCCCCCCC)OCc1cn(CCO[C@@H]2O[C@H](CO)[C@@H](O[C@@H]3O[C@H](CO)[C@H](O)[C@H](O[C@]4(C(=O)O)C[C@H](O)[C@@H](NC(C)=O)[C@H]([C@H](O)[C@H](O)CO)O4)[C@H]3O)[C@H](O)[C@H]2O)nn1 [GM3-DAG] |  |  |  |  |  |  |  |  | liposome binding, fluorescence signal (replicates) ([1]; sheet Figure S22b, Sig-6): 1899 and 2014 and 1894 and 1967; liposome binding, fluorescence signal (replicates) ([1]; sheet Figure S26a, 3% GM3-DAG liposomes, WT): 5874 and 5544 and 5060 and 6703; liposome binding, fluorescence signal (replicates) ([1]; sheet Figure S28b, 3% GM3-DAG liposomes, WT): 2153 and 2258 and 2285 and 2102; liposome binding, fluorescence signal (replicates) ([1]; sheet Figure S26d, WT): 1302 and 879 and 1034 and 1211 |
| CCCCCCCCCCCCCCCCOCC(COCCCCCCCCCCCCCCCC)OCc1cn(CCO[C@@H]2O[C@H](CO)[C@@H](O[C@@H]3O[C@H](CO)[C@H](O)[C@H](O[C@]4(C(=O)O)C[C@H](O)[C@@H](NC(C)=O)[C@H]([C@H](O)[C@H](O)CO)O4)[C@H]3O)[C@H](O)[C@H]2O)nn1 [nGL 5] | 3983 and 3299 and 3469 and 4281 |  |  |  |  |  |  |  | nGLL binding to WT Siglec-6 CHO cells (in words) ([1]; 3 mol% nGL in liposomes): relatively high binding; Binding of nGL liposomes to WT Siglec-6 CHO cells relative to naked liposomes (Fig. 3e) ([1]; 3 mol% nGL, replicates): 13.1 and 10.8 and 11.4 and 14; Binding of nGL liposomes relative to liposomes formulated with 3 mol% nGL 5 (Fig. 3g) ([1]; WT Siglec-6 CHO cells, 3 mol% nGL, replicates): 0.93 and 1.01 and 1.13; fold difference in binding to Siglec-6 between 5 and GM3 ([1]; cell assay (liposomal display)): 34 fold; liposome binding, fluorescence signal (replicates) ([1]; sheet Figure S18a, cells not given): 2909 and 2902 and 3112 and 3410; optimal content of 5 in liposomes for engaging Siglec-6 ([1]; titration in cell assay and bead assay): 5 mol%; Binding of nGL liposomes relative to liposomes formulated with 3 mol% nGL 5 (Fig. 3g) ([2]; R122A Siglec-6 CHO cells, 3 mol% nGL): 1.02 and 1.01 and 0.97 |
| GD1a |  | -0.09 and -0.06 and -0.03 and 0.01 | -0.06 (2×) and -0.02 and -0.08 | -0.1 and -0.13 (3×) | 0.57 (2×) and 0.56 (2×) | 0.06 (2×) and 0.03 and 0.05 | -0.11 (2×) and -0.07 and -0.09 | 0.5 and 0.47 and 0.41 and 0.51 |  |
| GD1b |  | -0.13 and -0.1 (2×) and -0.07 | -0.26 (2×) and -0.25 and -0.21 | -0.14 and -0.15 and -0.17 and -0.19 | 0.23 and 0.21 (2×) and 0.22 | -0.04 and -0.05 and -0.06 (2×) | -0.1 (3×) and -0.09 | 0.2 and 0.17 (2×) and 0.16 |  |
| GD3 |  | -0.03 (2×) and -0.01 and 0 | -0.04 (2×) and -0.02 and 0.05 | -0.04 (2×) and -0.08 (2×) | 0.91 and 0.9 (2×) and 0.88 | 0.09 and 0.07 and 0.1 (2×) | -0.13 and -0.11 and -0.09 (2×) | 0.78 (2×) and 0.7 and 0.79 |  |
| GM1 | 2111 and 2091 and 2310 and 2148 | -0.29 and -0.27 and -0.21 and -0.16 | -0.21 and -0.24 and -0.22 and -0.2 | -0.02 and -0.06 and -0.08 and -0.03 | 0.96 and 0.93 and 0.94 (2×) | -0.03 (2×) and -0.04 and -0.06 | 0.11 and 0.12 and 0.14 and 0.13 | 0.91 and 0.89 and 0.86 and 0.85 | Binding of liposomes to WT Siglec-6 CHO cells relative to liposomes formulated without a ligand (Fig. 3c) ([1]; replicates, listed as GM1 Cer): 10 and 9.9 and 11 and 10.2; GLL binding to Siglec-6 with increasing ganglioside content (in words) ([1]; ganglioside titrated in GLLs): decreased above an optimal ganglioside content |
| GM2 |  | -0.08 and -0.05 and -0.02 and 0 | -0.08 and -0.1 (2×) and -0.07 | -0.12 and -0.14 and -0.17 (2×) | 0.03 (2×) and 0.04 and 0.06 | 0.01 (3×) and 0 | -0.06 and -0.03 (2×) and -0.04 | 0.01 |  |
| GM3 | 274 and 267 and 291 and 321 | -0.19 and -0.14 and -0.12 and -0.08 | -0.19 and -0.23 and -0.18 and -0.21 | -0.18 and -0.17 and -0.2 (2×) | -0.2 (2×) and -0.19 and -0.17 | -0.16 and -0.15 (3×) | -0.1 and -0.09 and -0.11 and -0.12 | -0.11 (2×) and -0.14 (2×) | Binding of liposomes to WT Siglec-6 CHO cells relative to liposomes formulated without a ligand (Fig. 3c) ([1]; replicates, listed as GM3 Cer): 0.344 and 0.335 and 0.365 and 0.403 |
| GM4 |  | -0.13 and -0.11 and -0.09 and -0.02 | -0.09 and -0.12 and -0.06 and -0.1 | -0.14 (3×) and -0.16 | 0.02 (2×) and 0.05 and 0.04 | 0.05 (2×) and 0.06 and 0.07 | -0.11 and -0.09 (2×) and -0.07 | 0 |  |
